Results: ChEMBL document CHEMBL1201862, “PubChem BioAssay data set” (2004)
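Method: 48-hour compound exposure of cells in 96-well plates, five concentrations, linear interpolation of endpoints. At the GI50, growth is halved.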 Calls of active or inactive are those of the source. Rule as the data show it: active = GI50 up to about 1.1 µM and inactive = higher.

How the values were obtained:
Assay in all cases: growth of human tumour cells (NCI), 48 h
COLO 205 = system: COLO 205
HCT-116 = system: HCT-116
HOP-92 = system: HOP-92
HT-29 = system: HT-29
IGROV-1 = system: IGROV-1
K562 = system: K562
KM12 = system: KM12
MOLT-4 = system: MOLT-4
NCI-H226 = system: NCI-H226
OVCAR-4 = system: OVCAR-4
OVCAR-8 = system: OVCAR-8
RPMI-8226 = system: RPMI-8226
SF-295 = system: SF-295
SF-539 = system: SF-539
SK-OV-3 = system: SK-OV-3
SN12C = system: SN12C
U-251 = system: U-251
UACC-257 = system: UACC-257
UACC-62 = system: UACC-62
UO-31 = system: UO-31

Row | Structure (SMILES) | GI50 (COLO 205) | GI50 (HCT-116) | GI50 (HOP-92) | GI50 (HT-29) | GI50 (IGROV-1) | GI50 (K562) | GI50 (KM12) | GI50 (MOLT-4) | GI50 (NCI-H226) | GI50 (OVCAR-4) | GI50 (OVCAR-8) | GI50 (RPMI-8226) | GI50 (SF-295) | GI50 (SF-539) | GI50 (SK-OV-3) | GI50 (SN12C) | GI50 (U-251) | GI50 (UACC-257) | GI50 (UACC-62) | GI50 (UO-31)
1 | O=C1C=C(Sc2ccccc2)c2nccc3c2c1nc1ccccc13 | 16.6 µM (inactive) | 15.1 µM (inactive) | 17.9 µM (inactive) | 11.2 µM (inactive) | 11.2 µM (inactive) | 0.0234 µM (active) | 16.7 µM (inactive) | 4.27 µM (inactive) | 72.6 µM (inactive) | 16.1 µM (inactive) | 18.1 µM (inactive) | 28.1 µM (inactive) | 29.4 µM (inactive) | 17.1 µM (inactive) | 80 µM (inactive) | 17.8 µM (inactive) | 18.5 µM (inactive) | 15.5 µM (inactive) | 15.5 µM (inactive) | 12.8 µM (inactive)
2 | COc1ccc2[nH]c3c(C)c4ccncc4c(C)c3c2c1 | 0.19 µM (active) | 0.0425 µM (active) | 0.23 µM (active) | 0.212 µM (active) | 0.289 µM (active) | 0.196 µM (active) | 0.152 µM (active) | 0.0635 µM (active) | 1.13 µM (inactive) | 0.258 µM (active) | 0.111 µM (active) | 0.289 µM (active) | 0.521 µM (active) | 0.409 µM (active) | 0.75 µM (active) | 0.177 µM (active) | 0.513 µM (active) | 1.85 µM (inactive) | 0.731 µM (active) | 1.42 µM (inactive)
3 | O=C/C(=C1/C=Cc2cc([N+](=O)[O-])ccc2S1)c1ccccc1 | > 100 µM (inactive) | > 100 µM (inactive) | > 100 µM (inactive) | > 100 µM (inactive) | > 100 µM (inactive) | > 100 µM (inactive) |  | > 100 µM (inactive) | > 100 µM (inactive) | > 100 µM (inactive) |  | > 100 µM (inactive) | > 100 µM (inactive) | > 100 µM (inactive) | > 100 µM (inactive) | > 100 µM (inactive) | > 100 µM (inactive) | > 100 µM (inactive) |  | > 100 µM (inactive)
4 | Nc1ccccc1Sc1ccc(Cl)cc1 | 21.1 µM (inactive) | 34.3 µM (inactive) | 20 µM (inactive) | 19.1 µM (inactive) | 52 µM (inactive) | 27.8 µM (inactive) | 33.4 µM (inactive) | > 10 µM (inactive) | 4.86 µM (inactive) | 30.8 µM (inactive) | 37.5 µM (inactive) | 24.4 µM (inactive) | 27.9 µM (inactive) | 35.4 µM (inactive) | 40.4 µM (inactive) | 23.2 µM (inactive) | 16.2 µM (inactive) | 23.2 µM (inactive) | 30.3 µM (inactive) | 17.9 µM (inactive)
5 | COC1C(O)C(n2ncc3c(SC)nc(SC)nc32)OC1C(O)CO (configuration not stated) | > 100 µM (inactive) | > 100 µM (inactive) | > 100 µM (inactive) | > 100 µM (inactive) | > 100 µM (inactive) | > 100 µM (inactive) | > 100 µM (inactive) | > 100 µM (inactive) | > 100 µM (inactive) | > 100 µM (inactive) | > 100 µM (inactive) | > 100 µM (inactive) | > 100 µM (inactive) | > 100 µM (inactive) | > 100 µM (inactive) | > 100 µM (inactive) | > 100 µM (inactive) | > 37.6 µM (inactive) | > 100 µM (inactive) | > 100 µM (inactive)
6 | Nc1ccccc1S(=O)(=O)c1ccccc1 | > 100 µM (inactive) | > 100 µM (inactive) | > 100 µM (inactive) | > 100 µM (inactive) | > 100 µM (inactive) | > 100 µM (inactive) | > 100 µM (inactive) | > 100 µM (inactive) | 51.2 µM (inactive) | > 100 µM (inactive) | > 100 µM (inactive) | > 100 µM (inactive) | > 100 µM (inactive) | > 100 µM (inactive) | > 100 µM (inactive) | > 100 µM (inactive) | > 100 µM (inactive) | > 100 µM (inactive) | > 100 µM (inactive) | > 100 µM (inactive)
7 | O=C(O)c1ccc(Nc2c3ccccc3nc3ccccc23)cc1 | > 100 µM (inactive) | 45 µM (inactive) | > 65 µM (inactive) | 97.9 µM (inactive) | > 100 µM (inactive) | 76.2 µM (inactive) | > 100 µM (inactive) | 23.1 µM (inactive) | 31.8 µM (inactive) | > 100 µM (inactive) | 64 µM (inactive) | 54.8 µM (inactive) | 45.5 µM (inactive) | > 78.2 µM (inactive) | > 100 µM (inactive) | 64.7 µM (inactive) | 51.6 µM (inactive) | > 100 µM (inactive) | 47.4 µM (inactive) | 54.6 µM (inactive)
8 | COc1cc2c(oc(=O)c3cc(C)cc(OC)c32)c2c(C3OC(C)C(O)C(C)(O)C3O)ccc(O)c12 (configuration not stated) | 0.551 µM (active) | 0.216 µM (active) | 0.745 µM (active) | 0.463 µM (active) | 0.815 µM (active) | 0.277 µM (active) | 0.771 µM (active) | 0.075 µM (active) | 0.376 µM (active) | 0.467 µM (active) | 0.256 µM (active) | 0.454 µM (active) | 0.358 µM (active) | 0.466 µM (active) | 1.18 µM (inactive) | 0.402 µM (active) | 0.335 µM (active) | 0.731 µM (active) | 0.414 µM (active) | 1.04 µM (active)
9 | CCOC(=O)c1c[nH]c2cc3c(cc2c1=O)CCS3(=O)=O.CCOC(=O)c1c[nH]c2ccc3c(c2c1=O)S(=O)(=O)CC3 | > 100 µM (inactive) | > 100 µM (inactive) | > 100 µM (inactive) | > 100 µM (inactive) | > 100 µM (inactive) | > 100 µM (inactive) | > 100 µM (inactive) | > 100 µM (inactive) | 62.4 µM (inactive) | > 100 µM (inactive) | > 100 µM (inactive) | > 100 µM (inactive) | > 100 µM (inactive) | > 100 µM (inactive) | > 100 µM (inactive) | > 100 µM (inactive) | > 100 µM (inactive) | > 100 µM (inactive) | > 100 µM (inactive) | > 100 µM (inactive)
10 | Cc1ccc(C#CS(=O)(=O)C(F)(F)F)cc1 | > 100 µM (inactive) | > 100 µM (inactive) | > 100 µM (inactive) | > 100 µM (inactive) | > 100 µM (inactive) | > 100 µM (inactive) | > 100 µM (inactive) | > 100 µM (inactive) | > 89.7 µM (inactive) | > 100 µM (inactive) | > 100 µM (inactive) | > 100 µM (inactive) | > 31.6 µM (inactive) | > 100 µM (inactive) | > 100 µM (inactive) | > 100 µM (inactive) | > 100 µM (inactive) | > 100 µM (inactive) | > 100 µM (inactive) | > 100 µM (inactive)
11 | N#CC1=C(O)NC(O)=C(C#N)C1c1c(Cl)cccc1Cl | 37.1 µM (inactive) | 29 µM (inactive) | 15.8 µM (inactive) | 39.4 µM (inactive) | 40.6 µM (inactive) | > 100 µM (inactive) | 22.1 µM (inactive) | > 100 µM (inactive) | 17.9 µM (inactive) | 67.8 µM (inactive) | 20.2 µM (inactive) | > 100 µM (inactive) | 34.8 µM (inactive) | 20 µM (inactive) | 23.6 µM (inactive) | 31.8 µM (inactive) | 32.7 µM (inactive) | 35.2 µM (inactive) | 23.5 µM (inactive) | 37.9 µM (inactive)
12 | CC(C)CC(N)C(=O)NC(CNC(CCC(N)=O)C(=O)NC(CC(C)C)C(=O)NC(CC(C)C)C(=O)O)Cc1ccc2ccccc2c1 (configuration not stated) | > 10 µM (inactive) | > 10 µM (inactive) | > 10 µM (inactive) | > 10 µM (inactive) | > 10 µM (inactive) | > 10 µM (inactive) | > 10 µM (inactive) | > 10 µM (inactive) | > 10 µM (inactive) | > 10 µM (inactive) | > 10 µM (inactive) | > 10 µM (inactive) | > 10 µM (inactive) | > 10 µM (inactive) | > 10 µM (inactive) | > 10 µM (inactive) | > 10 µM (inactive) | > 10 µM (inactive) | > 10 µM (inactive) | > 10 µM (inactive)
